How the values were obtained:
[1] = biological target: Carbonic anhydrase 12 (Homo sapiens, UniProt O43570); test: Inhibition of human recombinant carbonic anhydrase 12 assessed as inhibition constant incubated for 10 mins by phenol red dye based stopped-flow CO2 hydration assay
[2] = biological target: Carbonic anhydrase 9 (Homo sapiens, UniProt Q16790); test: Inhibition of human recombinant carbonic anhydrase 9 assessed as inhibition constant incubated for 10 mins by phenol red dye based stopped-flow CO2 hydration assay
[3] = biological target: Carbonic anhydrase 1 (Homo sapiens, UniProt P00915); test: Inhibition of human recombinant carbonic anhydrase 1 assessed as inhibition constant incubated for 10 mins by phenol red dye based stopped-flow CO2 hydration assay
[4] = biological target: Carbonic anhydrase 2 (Homo sapiens, UniProt P00918); test: Inhibition of human recombinant carbonic anhydrase 2 assessed as inhibition constant incubated for 10 mins by phenol red dye based stopped-flow CO2 hydration assay
[5] = biological target: Carbonic anhydrase 4 (Homo sapiens, UniProt P22748); test: Inhibition of human recombinant carbonic anhydrase 4 assessed as inhibition constant incubated for 10 mins by phenol red dye based stopped-flow CO2 hydration assay
Chain of Carbonic anhydrase 4 (P22748 whole entry): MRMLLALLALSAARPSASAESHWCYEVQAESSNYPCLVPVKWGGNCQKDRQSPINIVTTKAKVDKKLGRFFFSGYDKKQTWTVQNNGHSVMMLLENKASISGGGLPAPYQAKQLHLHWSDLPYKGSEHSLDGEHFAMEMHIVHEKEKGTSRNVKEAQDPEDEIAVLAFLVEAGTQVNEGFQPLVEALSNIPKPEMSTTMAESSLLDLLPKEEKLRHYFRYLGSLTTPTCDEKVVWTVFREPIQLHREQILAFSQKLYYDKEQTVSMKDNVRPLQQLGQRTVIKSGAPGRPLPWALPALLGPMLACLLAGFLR

Chain of Carbonic anhydrase 1 (P00915 whole entry): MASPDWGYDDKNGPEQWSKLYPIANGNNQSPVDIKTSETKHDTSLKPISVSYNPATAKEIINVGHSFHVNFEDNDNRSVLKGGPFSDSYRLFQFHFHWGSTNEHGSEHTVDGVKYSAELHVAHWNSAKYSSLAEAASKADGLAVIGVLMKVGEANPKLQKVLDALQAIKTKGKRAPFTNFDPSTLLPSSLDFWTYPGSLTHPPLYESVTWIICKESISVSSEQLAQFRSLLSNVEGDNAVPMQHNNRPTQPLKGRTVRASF
Chain of Carbonic anhydrase 12 (O43570 whole entry): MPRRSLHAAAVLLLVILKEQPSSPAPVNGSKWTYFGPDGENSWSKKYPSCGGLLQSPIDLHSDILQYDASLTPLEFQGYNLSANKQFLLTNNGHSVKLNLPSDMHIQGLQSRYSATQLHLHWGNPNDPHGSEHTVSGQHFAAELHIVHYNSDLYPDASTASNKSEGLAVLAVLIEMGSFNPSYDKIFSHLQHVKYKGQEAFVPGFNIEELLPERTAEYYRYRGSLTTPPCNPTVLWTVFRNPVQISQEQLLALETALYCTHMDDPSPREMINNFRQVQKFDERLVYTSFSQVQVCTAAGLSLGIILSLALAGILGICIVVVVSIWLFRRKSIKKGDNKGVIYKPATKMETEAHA

SMILES	Ki [1]	Ki [2]	Ki [3]	Ki [4]	Ki [5]
NS(=O)(=O)c1ccc(NC(=O)c2cc(-c3cccc(Cl)c3)nc3ccccc23)cc1	72.8 nM	97.1 nM	838 nM	141 nM	–
NS(=O)(=O)c1cccc(NC(=O)c2cc(-c3ccccc3)nc3ccccc23)c1	9.6 nM	67.4 nM	966 nM	298 nM	–
NS(=O)(=O)c1cccc(NC(=O)c2cc(-c3ccccc3)nc3ccc(Cl)cc23)c1	71.1 nM	330 nM	6600 nM	172 nM	–
COc1ccc2nc(-c3ccccc3)cc(C(=O)NCCc3ccc(S(N)(=O)=O)cc3)c2c1	391 nM	75.5 nM	933 nM	487 nM	–
COc1ccc2nc(-c3ccccc3OC)cc(C(=O)NCCc3ccc(S(N)(=O)=O)cc3)c2c1	851 nM	67.7 nM	902 nM	382 nM	–
NS(=O)(=O)c1ccc(NC(=O)c2cc(-c3cccc(C(F)(F)F)c3)nc3ccccc23)cc1	169 nM	421 nM	659 nM	262 nM	–
COc1ccc2nc(-c3ccc(Cl)cc3Cl)cc(C(=O)Nc3cccc(S(N)(=O)=O)c3)c2c1	64.8 nM	93.5 nM	896 nM	61.7 nM	–
NS(=O)(=O)c1ccc(NC(=O)Cn2cc(/C=C/C(=O)c3cccc(C(F)(F)F)c3)c3ccccc32)cc1	–	31 nM	–	2.3 nM	–
NS(=O)(=O)c1ccc(CCNC(=O)c2cc(-c3cccc(C(F)(F)F)c3)nc3ccccc23)cc1	6.9 nM	74.2 nM	1820 nM	91.1 nM	–
NS(=O)(=O)c1cccc(NC(=O)c2cc(-c3ccc4c(c3)OCO4)nc3ccccc23)c1	88.9 nM	65.4 nM	1460 nM	478 nM	–
NS(=O)(=O)c1cccc(NC(=O)c2cc(-c3cccc(Cl)c3)nc3ccc(Cl)cc23)c1	527 nM	349 nM	848 nM	257 nM	–
NS(=O)(=O)c1ccc(NC(=O)c2cc(-c3ccccc3)nc3ccccc23)cc1	130 nM	70.4 nM	537 nM	54.7 nM	–
COc1ccc2nc(-c3ccccc3OC)cc(C(=O)Nc3ccc(S(N)(=O)=O)cc3)c2c1	8.8 nM	37.2 nM	283 nM	44.5 nM	–
COc1ccc2nc(-c3ccc(OC)c(OC)c3)cc(C(=O)Nc3cccc(S(N)(=O)=O)c3)c2c1	426 nM	51.3 nM	665 nM	97.8 nM	–
Cc1ccc(-c2cc(C(=O)Nc3cccc(S(N)(=O)=O)c3)c3cc(Cl)ccc3n2)cc1	757 nM	245 nM	3940 nM	293 nM	–
COc1ccc(-c2cc(C(=O)Nc3ccc(S(N)(=O)=O)cc3)c3ccccc3n2)c(OC)c1	261 nM	93.2 nM	5320 nM	598 nM	–
O=C(/C=C/c1sc(N2CCOCC2)nc1-c1ccc([N+](=O)[O-])cc1)Nc1ccc(Br)cc1	8.8 nM	54.7 nM	–	9.3 nM	–

Now from value to compound:

Ki [1]	Ki [2]	Ki [3]	Ki [4]	Ki [5]	SMILES
758 nM	58.8 nM	6280 nM	867 nM	–	NS(=O)(=O)c1ccc(CCNC(=O)c2cc(-c3ccccc3)nc3ccc(Br)cc23)cc1
555 nM	22.8 nM	3620 nM	18.3 nM	–	NS(=O)(=O)c1ccc(CCNC(=O)c2cc(-c3ccc4c(c3)OCO4)nc3ccccc23)cc1
438 nM	73.8 nM	6340 nM	674 nM	–	COc1ccc2nc(-c3ccc(Cl)cc3Cl)cc(C(=O)NCCc3ccc(S(N)(=O)=O)cc3)c2c1
46.9 nM	21.4 nM	555 nM	28.5 nM	–	COc1ccc2nc(-c3ccccc3C)cc(C(=O)Nc3ccc(S(N)(=O)=O)cc3)c2c1
215 nM	309 nM	797 nM	305 nM	–	COc1ccc(-c2cc(C(=O)Nc3ccc(S(N)(=O)=O)cc3)c3cc(Cl)ccc3n2)cc1OC
0.1 nM	–	1.3 nM	0.03 nM	–	NS(=O)(=O)c1cc(C(=O)CSc2nc3c(cnc4ccccc43)[nH]2)ccc1Cl
30.9 nM	39.3 nM	977 nM	9.6 nM	–	NS(=O)(=O)c1ccc(CCNC(=O)c2cc(-c3cccc(Br)c3)nc3ccccc23)cc1
76.2 nM	78.2 nM	888 nM	388 nM	–	COc1ccc(-c2cc(C(=O)Nc3cccc(S(N)(=O)=O)c3)c3ccccc3n2)cc1OC
341 nM	91.3 nM	854 nM	156 nM	–	NS(=O)(=O)c1cccc(NC(=O)c2cc(-c3cccc(Br)c3)nc3ccccc23)c1
423 nM	247 nM	831 nM	253 nM	–	COc1ccc(-c2cc(C(=O)Nc3cccc(S(N)(=O)=O)c3)c3cc(Cl)ccc3n2)cc1OC
72.1 nM	6.5 nM	256 nM	7.1 nM	–	NS(=O)(=O)c1ccc(NC(=O)c2cc(-c3ccc4c(c3)OCO4)nc3ccccc23)cc1
88.5 nM	9.7 nM	91.8 nM	35.2 nM	–	COc1ccc(-c2cc(C(=O)NCCc3ccc(S(N)(=O)=O)cc3)c3ccccc3n2)cc1OC
302 nM	91.6 nM	765 nM	187 nM	–	COc1ccc(-c2cc(C(=O)NCCc3ccc(S(N)(=O)=O)cc3)c3cc(Cl)ccc3n2)cc1OC
75.5 nM	9.1 nM	416 nM	26.2 nM	–	COc1ccc2nc(-c3ccc(OC)c(OC)c3)cc(C(=O)Nc3ccc(S(N)(=O)=O)cc3)c2c1
218 nM	70.3 nM	5540 nM	588 nM	–	COc1ccc2nc(-c3ccc(OC)c(OC)c3)cc(C(=O)NCCc3ccc(S(N)(=O)=O)cc3)c2c1
365 nM	64.6 nM	3770 nM	87.8 nM	–	NS(=O)(=O)c1cccc(NC(=O)c2cc(-c3cccc(C(F)(F)F)c3)nc3ccccc23)c1
56.7 nM	35.7 nM	535 nM	91.3 nM	–	COc1ccc2nc(-c3ccccc3)cc(C(=O)Nc3ccc(S(N)(=O)=O)cc3)c2c1
–	–	–	5 nM	10 nM	CCN(C1CC(C)S(=O)(=O)c2sc(S(N)(=O)=O)cc21)S(=O)(=O)c1cccc2cccnc12 (stereo not drawn)
6.7 nM	47.6 nM	1890 nM	42.9 nM	–	NS(=O)(=O)c1ccc(CCNC(=O)c2cc(-c3ccccc3)nc3ccc(Cl)cc23)cc1

Reference: ChEMBL document CHEMBL5131506, “Exploration of 2-phenylquinoline-4-carboxamide linked benzene sulfonamide derivatives as isoform selective inhibitors of transmembrane human carbonic anhydrases” (Eur J Med Chem, 2022)
